IC50 data for one compound are collected here from patent US5886178A, “3-aroylbenzylpyridazinone derivatives” (Syntex (U.S.A.) Inc., priority 1997, dated 1999).

Experiment [1] addresses T1, COX II (Homo sapiens, UniProt P35354).
T1 sequence (P35354 18-604): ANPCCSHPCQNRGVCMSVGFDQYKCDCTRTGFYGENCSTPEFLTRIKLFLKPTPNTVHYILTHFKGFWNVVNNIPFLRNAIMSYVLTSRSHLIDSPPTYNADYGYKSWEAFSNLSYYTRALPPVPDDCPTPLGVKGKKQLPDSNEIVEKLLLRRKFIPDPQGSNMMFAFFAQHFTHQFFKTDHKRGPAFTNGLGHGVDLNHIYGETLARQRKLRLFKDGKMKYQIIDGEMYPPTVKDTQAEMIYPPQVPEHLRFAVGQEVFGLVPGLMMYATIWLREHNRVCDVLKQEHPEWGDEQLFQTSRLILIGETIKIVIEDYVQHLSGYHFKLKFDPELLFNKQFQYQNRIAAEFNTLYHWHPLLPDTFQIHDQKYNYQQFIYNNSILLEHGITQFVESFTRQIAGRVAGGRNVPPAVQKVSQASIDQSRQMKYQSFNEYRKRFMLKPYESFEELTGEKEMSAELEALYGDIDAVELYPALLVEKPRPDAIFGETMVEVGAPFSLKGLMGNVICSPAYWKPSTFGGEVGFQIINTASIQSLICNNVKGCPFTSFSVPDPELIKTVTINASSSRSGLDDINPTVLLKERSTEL
Description: Inhibition of COX II in vitro, partially purified enzyme, radiometric assay. The format is biochemical. The following applies: 20 micromolar arachidonic acid. Further details: made in house. As for the experimental part: The COX I and COX II inhibitory activity of compounds of this invention in vitro was determined using partially purified COX I and COX II enzymes, prepared as described in J. Barnett et al, Biochim. Biophys.
COX I and COX II samples were diluted with Tris-HCl buffer (50 mM Tris-HCl, pH 7.9) containing 2 mM EDTA and 10% glycerol and reconstituted by incubating first with 2 mM phenol for 5 minutes and then with 1 micromolar hematin for an additional 5 minutes. 125 μl of the reconstituted COX I or COX II enzyme were preincubated for 10 minutes at room temperature in a shaking water bath with the compounds of the invention dissolved in 2-15 μl of DMSO or the carrier vehicles (control samples). The enzyme reaction was initiated by adding 25 μl of 1-[14C]arachidonic acid (80,000-100,000 cpm/tube; 20 micromolar final concentration) and the reaction was allowed to continue for an additional 45 seconds. The reaction was terminated by adding 100 μl of 2N HCl and 750 μl water. An aliquot (950 μl) of the reaction mixture was loaded onto a 1 ml C18 Sep-Pak column (J. T. Baker, Phillipsburg, N.J.) which had been previously washed with 2-3 ml methanol and equilibrated with 5-6 ml distilled water. Oxygenated products were quantitatively eluted with 3 ml of acetonitrile/water/acetic acid (50:50:0.1, v/v) and the radioactivity in the eluate determined in a scintillation counter.

The target of experiment [2] is T1, COX II. Description: Inhibition of COX II in a cell based assay (human foreskin fibroblasts, PGE2 ELISA). Details: host or cells: primary human foreskin fibroblasts (HFF), induced with PMA and human interleukin-1. Particulars: human foreskin fibroblasts (HFF). Here is the method:
The COX I and COX II inhibitory activity of compounds of this invention in a cell based assay was determined as described below.
The inhibitory activity of test compounds against cell associated COX-2 was measured using primary cultures of human foreskin fibroblasts (HFF). HFF cultures were obtained from ATCC, grown in DMEM medium (Gibco) and used between 13-30 passages. Cells were plated in 96-well microtiter plates at a density of 6-8×10^4 cells/well in DMEM containing 10% fetal calf serum (Sigma) and cultured at 37° C. until they became confluent. The medium was removed and the cells were washed once with PBS. COX-2 activity was induced by incubating the cells with fresh DMEM containing 0.1 μM phorbol 12-myristate 13-acetate (PMA, Sigma) and 1ng/ml of human interleukin-1 (Sigma) at 37° C. After 16 h the medium was removed and the cells were washed twice with phosphate buffered saline (PBS, Gibco). 200 μl/well of fresh medium containing desired concentrations of the test compounds in DMSO, or the carrier vehicle (control wells) was added and the cells incubated at 37° C. for 30 minutes; after which 5 μM calcium ionophore A23187 (Sigma) was added and the incubation was continued for an additional 10 minutes. The reaction was terminated by transferring the plates to ice. The culture supernatants were transferred and appropriately diluted, and the amount of prostaglandin E2 (PGE2) present in each supernatant was quantitated using an ELISA kit (Cayman Chemicals).
The COX I and COX II inhibitory activities in the cell based assay (expressed as IC50) of some compounds of the invention were: […]
For orientation: ELISA stands for enzyme-linked immunosorbent assay.

Molecules are shown by their SMILES.

As a reminder, the IC50 is the concentration that inhibits the measured activity by half. Low values mean greater potency in that assay, high ones weaker potency in that assay. On to `COc1ccc(C(=O)c2cccc(Cc3ccc(=O)[nH]n3)c2C)cc1` [Cpd 11, 6-[3-(4-methoxybenzoyl)-2-methylbenzyl]-2H-pyridazin-3-one], for which the IC50 was 1800 nM against COX II [1] and 2000 nM on COX II [2].
